Laboratory results: patent publication US6057364A, “Fluoro-substituted adamantane derivatives” (Pfizer Inc, priority 1998, dated 2000)

Test: metabolic stability in liver microsomes (standard microsomal incubation, LC/MS)
Assay type: in vitro ADME
Conditions: 10 μM compound, 0.2 μM microsomal cytochrome P450, pH 7.4, 37° C, read-out: % Loss (amount of compound that was metabolically degraded)
Protocol: The metabolic stability of the active compounds may be assessed according to the following procedure. A standard microsomal incubation condition is prepared for assessing the rate of metabolism of the active compound in liver microsomes. The microsomal incubation condition comprises 100 mM potassium phosphate buffer (pH 7.4), 10 mM MgCl2, 0.5 mM NADP^+ (nicotinamide adenine dinucleotide phosphate) 4 mM glucose 6 phosphate, 10 unit/mL glucose 6 phosphate dehydrogenase, 0.2 μM microsomal cytochrome P450, and 10 μM active compound. The incubation is started by adding substrate to the reaction mixture that has been preincubated for approximately 3 minutes at 37° C. An aliquot is removed at 0, 1, 2, 5, 10, and 20 minute time points and added to an equal volume of methanol to quench the reaction. The precipitate in the samples is removed by centrifugation and the supernatants are stored at -20° C. The samples are analyzed by standard LC/MS to determine the amount of active compound that has been metabolically degraded.
The compounds illustrated in the chemical formula provided for the Table above were prepared as described in PCT published patent application WO 95/29909, which was published Nov. 9, 1995, entitled "Novel Acyclic And Cyclic Amides As Neurotransmitter Release Enhancers." The compounds illustrated above are pharmaceutically active compounds that enhance the release of neurotransmitters such as acetylcholine, dopamine and serotonin, and therefore are useful for treating Alzheimer's disease, age-associated memory impairment, Parkinson's disease and other central nervous system disorders in mammals, in particular humans. The metabolic stability of the above compounds was assessed according to the procedure described above. The metabolic stability of the above compounds is provided in the above table in the column marked "% Loss" which indicates the amount of compound that was metabolically degraded after 10 minutes in a standard microsomal incubation condition which was prepared as described above.

Row | SMILES | metabolised at 10 min, 10 µM
1 | O=C1CC(Cc2ccncc2)(Cc2ccncc2)C(=O)N1C12CC3(F)CC(F)(CC(F)(C3)C1)C2 [F F F] | 10%
2 | O=C1CC(Cc2ccncc2)(Cc2ccncc2)C(=O)N1C12CC3CC(F)(CC(F)(C3)C1)C2 [F F H] | 75%
3 | O=C1CC(Cc2ccncc2)(Cc2ccncc2)C(=O)N1C12CC3CC(CC(F)(C3)C1)C2 [F H H] | 75%
4 | O=C1CC(Cc2ccncc2)(Cc2ccncc2)C(=O)N1C12CC3CC(CC(C3)C1)C2 [H H H, reference compound] | > 75%
